Data on one compound can be found in article PMC7252214 (The Plant journal : for cell and molecular biology, 2019).

This assay addresses T1, ApKSL2 (Andrographis paniculata, UniProt A0A3G1S3U0).
T1 sequence (A0A3G1S3U0 41-814): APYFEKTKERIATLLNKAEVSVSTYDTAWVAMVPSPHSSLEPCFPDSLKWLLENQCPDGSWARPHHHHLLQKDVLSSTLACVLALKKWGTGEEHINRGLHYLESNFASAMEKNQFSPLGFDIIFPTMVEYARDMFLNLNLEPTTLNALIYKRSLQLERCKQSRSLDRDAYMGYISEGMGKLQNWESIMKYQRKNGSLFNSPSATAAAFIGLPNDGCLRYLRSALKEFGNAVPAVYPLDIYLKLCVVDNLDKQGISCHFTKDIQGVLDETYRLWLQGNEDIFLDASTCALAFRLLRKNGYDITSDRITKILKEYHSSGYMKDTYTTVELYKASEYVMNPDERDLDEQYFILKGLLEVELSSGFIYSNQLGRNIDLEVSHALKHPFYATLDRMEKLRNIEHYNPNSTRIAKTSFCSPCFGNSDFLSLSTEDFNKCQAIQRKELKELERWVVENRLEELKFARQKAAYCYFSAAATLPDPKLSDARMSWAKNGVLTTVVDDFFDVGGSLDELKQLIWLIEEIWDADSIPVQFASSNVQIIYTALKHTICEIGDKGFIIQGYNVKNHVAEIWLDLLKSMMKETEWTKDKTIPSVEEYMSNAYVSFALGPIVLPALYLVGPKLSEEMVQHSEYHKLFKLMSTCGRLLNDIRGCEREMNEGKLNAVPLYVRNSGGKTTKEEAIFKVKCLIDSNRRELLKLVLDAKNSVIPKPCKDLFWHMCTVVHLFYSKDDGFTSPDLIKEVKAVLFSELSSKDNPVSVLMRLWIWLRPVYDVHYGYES
Description: co-expression in E. coli, GC-MS of products. The settings on record: E. coli engineered to produce ent-CPP; product ent-kaurene. The assay is classed as cell-based.

Each structure is given as a SMILES string.

As to `C=C1CC[C@@H]2C(C)(C)CCC[C@@]2(C)[C@@H]1CC/C(C)=C/COP(=O)(O)OP(=O)(O)O` [ent-CPP], the “co-expression in E. coli, GC-MS of products” value was “ApKSL2 acted on both ent-CPP, producing ent-kaurene”.
